The values below come from BindingDB's records for doi:10.1007/s10822-022-00478-x (Roche Innovation Center Basel, F. Hoffmann-La Roche Ltd., 2022).

The assay deals with cAMP and cAMP-inhibited cGMP 3',5'-cyclic phosphodiesterase 10A (Homo sapiens, UniProt Q9Y233). Put plainly: PDE10A assay. The method in brief: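 Human PDE10A (2 ng/well) preincubated 15 min RT with compound in HEPES pH 7.5, 10 mM MgCl2, BSA, then reacted 15 min with 50 nM [3H]cGMP/cGMP substrate. Stopped with Y-Si SPA beads; bound radioactivity counted, IC50 from four-parameter logistic, pIC50 = −log10(IC50).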

A word on the IC50: it is the point on the concentration scale where inhibition reaches its midpoint. Turning to `COc1cccc(NC(=O)c2nc(C3CC3)cnc2Nc2cncnc2)n1` [Roche-Dataset for PDE10A, Compound 1011], the IC50 amounted to 49 nM. To `CN(C)C(=O)c1cnn(Cc2ccccc2)c1C(=O)Nc1ccn2nc(N3CCOCC3)nc2c1` [Roche-Dataset for PDE10A, Compound 1136] belongs 868 nM. In the case of `CCN(C)c1nc2cc(NC(=O)c3c(C(=O)O)cnn3C)ccn2n1` [Roche-Dataset for PDE10A, Compound 717], half-maximal inhibition (IC50) required 284 nM. Against the preceding compound, the IC50 is about 3.1-fold lower.

On to `Cn1ncc(C(=O)N2CCC2)c1C(=O)Nc1ccn2cc(-c3cccc(OCCCF)c3)nc2n1` [Roche-Dataset for PDE10A, Compound 28], for which the IC50 turned out to be 7.34 nM. The same measure for `O=C(Nc1ccc2cccnc2c1)c1nc(C2CC2)ccc1Nc1cncnc1` [Roche-Dataset for PDE10A, Compound 929]: 5.75 nM; for `Cc1ncc(Br)c2nc(CCc3nc(N4CCCC4)nn3C)nn12` [Roche-Dataset for PDE10A, Compound 658]: 34 nM; for `COc1cnc(C)n2nc(CCc3nc(N4CCCC4)nn3C)nc12` [Roche-Dataset for PDE10A, Compound 671]: 11 nM.

For the compound `CCc1nc(CNC(=O)c2cnn(C)c2C(=O)Nc2ccn3cc(-c4ccccc4)nc3n2)cs1` [Roche-Dataset for PDE10A, Compound 601], the IC50 was 1130 nM. The same measure for `COC(=O)c1cccc(NC(=O)c2nc(C3CC3)cnc2Nc2cncnc2)n1` [Roche-Dataset for PDE10A, Compound 1037]: 29 nM. To `CCOC(=O)c1cnn(C)c1C(=O)N(C)c1ccn2nc(-c3ccccc3)nc2c1` [Roche-Dataset for PDE10A, Compound 825] belongs 10000 nM. To `Cn1ncc(C(=O)N2CCOCC2)c1C(=O)N[C@H]1CCn2cc(-c3ccc(F)cc3)nc2C1` [Roche-Dataset for PDE10A, Compound 938] belongs 624 nM; to `Cc1noc(C(=O)Nc2cc(-c3ccccn3)nn2C)c1Br` [Roche-Dataset for PDE10A, Compound 886], 6220 nM; to `O=C(Nc1nnc(-c2ccc(F)cc2)s1)c1nc(C2CC2)ccc1Nc1cncnc1` [US8470820, 45], 6200 nM. In turn, `CC(=O)N1CCc2ccc(NC(=O)c3nc(C4CC4)cnc3Nc3cncnc3)cc21` [Roche-Dataset for PDE10A, Compound 827] yielded an IC50 of 5.85 nM. This IC50 is about 1100-fold lower than that of the compound before. For `O=C(Nc1cc(-c2ccccn2)nn1CC1CCCCC1)c1nc(C2CC2)ccc1Nc1cncnc1` [US8470820, 32], half-maximal inhibition (IC50) was put at 1.06 nM. Take `CN(C)C(=O)Cc1csc(NC(=O)c2nc(C3CC3)cnc2Nc2cncnc2)n1` [Roche-Dataset for PDE10A, Compound 775]: inhibition was half-maximal at 13 nM (IC50). The same measure for `O=C1c2ccccc2CN1c1ccc2nc(-c3ccccc3)[nH]c2c1` [Roche-Dataset for PDE10A, Compound 307]: 371 nM. To `COC(=O)c1cccnc1C(=O)Nc1ccn2nc(-c3ccccc3)nc2c1` [Roche-Dataset for PDE10A, Compound 659] belongs 2720 nM; to `CCN(C)C(=O)c1cnn(C)c1C(=O)N[C@@H]1CCn2cc(-c3ccccc3)nc2C1` [Roche-Dataset for PDE10A, Compound 242], 15 nM; to `CCn1nc(C)cc1C(=O)Nc1cc2nc(-c3ccccc3)[nH]c2cc1C(=O)NC` [Roche-Dataset for PDE10A, Compound 369], 22 nM. Consider `COc1ccccc1-c1cn2c(n1)C[C@H](NC(=O)c1c(C(=O)N(C)C3CC3)cnn1C)CC2` [Roche-Dataset for PDE10A, Compound 278], for which the midpoint of inhibition, the IC50, lay at 13 nM. To `Cc1cccc(CCc2nc(-c3ccccc3)cn2C)n1` [Roche-Dataset for PDE10A, Compound 328] belongs 9270 nM. The same measure for `CNc1cc(C(=O)Nc2ccn3nc(-c4ccccc4)nc3c2)cc(Cl)n1` [Roche-Dataset for PDE10A, Compound 199]: 86 nM; for `O=C(NCc1nccn1Cc1ccccc1)c1nc(C2CC2)cnc1Nc1cncnc1` [Roche-Dataset for PDE10A, Compound 631]: 273 nM; for `CCn1nc(-c2ccccn2)cc1NC(=O)c1nc(C2CC2)ccc1Nc1cncnc1` [US8470820, 30]: 4.73 nM. On to `O=C(Nc1ccn2nc(-c3ccccc3)nc2c1)c1ccno1` [Roche-Dataset for PDE10A, Compound 606], for which half-maximal inhibition (IC50) required 2350 nM. The same measure for `Cc1cc(C)n2nc(CCc3nc4c(Cl)cc(Cl)c(C)n4n3)nc2n1` [Roche-Dataset for PDE10A, Compound 1073]: 276 nM; for `Cn1nccc1NC(=O)c1c(C(=O)N2CCC2)cnn1C` [Roche-Dataset for PDE10A, Compound 1138]: 1920 nM. The same measure for `Cn1nc(N2CCCC2)nc1CCc1nc2c(C#N)cccn2n1` [Roche-Dataset for PDE10A, Compound 342]: 467 nM; for `Cc1c(Cl)cc(OC(C)C)c2nc(CCc3nc(N4CCCC4)nn3C)nn12` [Roche-Dataset for PDE10A, Compound 223]: 0.69 nM. To `Cn1nc(N2CCCC2)nc1/C=C/c1nc(N2CCCC2)n(C)n1` [Roche-Dataset for PDE10A, Compound 429] belongs 429 nM; to `Cn1ncc(C(=O)N2CCC2)c1C(=O)N[C@@H]1CCn2cc(-c3ccccc3Cl)nc2C1` [Roche-Dataset for PDE10A, Compound 408], 2.22 nM; to `Cc1c(Cl)cc(Cl)c2nc(CCc3nc4ncccn4n3)nn12` [Roche-Dataset for PDE10A, Compound 791], 916 nM.

With `Cc1cc(-c2nc3cc(NC(=O)c4c(C(=O)N5CCC5)cnn4C)ccn3n2)ccn1` [Roche-Dataset for PDE10A, Compound 234], inhibition was half-maximal at 1.91 nM (IC50). Turning to `Cn1nc(N2CCCC2)nc1CCc1nc2c(F)cc(F)cn2n1` [Roche-Dataset for PDE10A, Compound 407], the IC50 came out at 628 nM. Compared with the last compound, the IC50 is about 330-fold higher.

The compound `CN(C)c1cc(C(=O)Nc2ccn3nc(-c4ccccc4)nc3c2)cc(Cl)n1` [Roche-Dataset for PDE10A, Compound 167] had an IC50 of 131 nM. As to `Cn1cc(-c2ccccc2)nc1/C=C/c1ccc2ccccc2n1` [Roche-Dataset for PDE10A, Compound 180], 271 nM corresponded to half-maximal inhibition (IC50). The same measure for `Cn1ncc(C(=O)N2CCC2)c1C(=O)N[C@@H]1CCn2cc(-c3ccccc3OC(F)(F)F)nc2C1` [Roche-Dataset for PDE10A, Compound 253]: 44 nM; for `O=C(NCc1cncs1)c1nc(C2CC2)cnc1Nc1cncnc1` [Roche-Dataset for PDE10A, Compound 1028]: 890 nM; for `O=C(Nc1cncc(OC(F)F)c1)c1nc(C2CC2)cnc1Nc1cncnc1` [Roche-Dataset for PDE10A, Compound 855]: 134 nM. In the case of `CC(C)c1cc(NC(=O)c2c(C(=O)N3CCC3)cnn2C)n(C2CCCC2)n1` [Roche-Dataset for PDE10A, Compound 1042], the 50% inhibitory concentration (IC50) is 854 nM. Against the preceding compound, the IC50 is about 6.4-fold higher. The same measure for `CN(C)C(=O)c1cnn(C)c1C(=O)N[C@@H]1CCn2cc(-c3ccccc3OC(F)F)nc2C1` [Roche-Dataset for PDE10A, Compound 317]: 19 nM; for `O=C(Nc1ccn(C2CCCCC2)n1)c1nc(C2CC2)ccc1Nc1cncnc1` [Roche-Dataset for PDE10A, Compound 632]: 19 nM. As for `O=C(Nc1ccn(Cc2ccccc2)n1)c1nc(C2CC2)ccc1Nc1cncnc1` [Roche-Dataset for PDE10A, Compound 446], inhibition was half-maximal at 3.41 nM (IC50).
